Counter-ions that a name gives are not always drawn. No end group written: not given here.
Legend:
HEK293T cells = test: cAMP accumulation, forskolin-stimulated, in empty-vector (pcDNA 3.1) HEK293T cells; assay type: cell-based, human; details: HEK293T transfected with empty vector; 1 mM IBMX, 1 μM forskolin; ligand 5 min; three independent experiments
Experimental: For time-course assays, transfected cells were seeded in 24 wells dishes and after 24 h, 100% confluent cells were starved for 2 h and incubated 5 min in basal culture medium supplemented with 1 mM IBMX at 37°C, followed by exposure to 1 μM forskolin for 5, 10, 15, 30, or 60 min. In concentration response assays, transfected cells were seeded in 24 wells dishes after 24 h, 100% confluent cells were starved for 2 h and incubated 5 min in basal culture medium supplemented with 1 mM IBMX at 37°C, followed by 10 min exposure to 1 μM forskolin to increase basal cAMP levels, and incubated for 5 min with indicated concentrations of Ang-(1–7) or AVE 0991. For all cAMP determinations, the reactions were stopped by ethanol addition followed by centrifugation at 2,000 g for 10 min. The ethanol phase was then dried, and the residue resuspended in 50 mM Tris-HCl pH 7.4, 0.1% BSA. cAMP content was determined by competition of [^3H]cAMP for PKA, as previously described ([Davio et al., 1995]).

human MasR = molecular target: T1, human MasR (Homo sapiens, UniProt P04201); test: cAMP accumulation, forskolin-stimulated, in MasR-transfected HEK293T cells (competition of [^3H]cAMP for PKA); assay type: cell-based; details: 1 mM IBMX
T1 construct: host or cells: HEK293T, transient transfection
T1 sequence (P04201 1-325): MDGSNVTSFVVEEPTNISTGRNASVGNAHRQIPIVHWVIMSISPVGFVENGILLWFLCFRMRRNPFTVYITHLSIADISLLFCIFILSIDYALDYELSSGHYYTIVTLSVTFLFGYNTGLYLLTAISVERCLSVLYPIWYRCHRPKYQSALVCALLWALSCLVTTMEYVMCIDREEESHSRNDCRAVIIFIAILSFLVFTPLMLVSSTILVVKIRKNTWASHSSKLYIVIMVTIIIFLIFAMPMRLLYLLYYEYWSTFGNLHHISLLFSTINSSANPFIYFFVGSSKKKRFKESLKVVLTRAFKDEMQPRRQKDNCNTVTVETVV
Experimental: A pcDNA3.1(+)-myc-MasR expression construct corresponding to the human MasR (accession number: NM_002377.2) fused to the c-myc tag peptide at N-terminal was acquired from Life Technologies (Grand Island, NY, United States). An empty vector [pcDNA 3.1 (+)] was used both as negative control and to deliver an equal amount of plasmid per transfection in all the experiments.
Cultures were maintained at 37°C in humidified atmosphere containing 5% CO2. For transient transfections, cells were grown to 80–90% confluency and the cDNA constructs were transfected using the K2 Transfection System (Biontex, Munich, Germany). The transfection protocol was optimized as recommended by the suppliers. Assays were performed 48 h after transfection. […] The transfection protocol was optimized as recommended by the suppliers. Assays were performed 48 h after transfection.
For determination of cAMP basal levels, transfected cells were seeded in 12 wells dishes, 24 h later 100% confluent cells were starved for 2 h and pretreated, when indicated, for 1 h with pertussis toxin (100 ng/ml) and incubated later for 30 min in basal culture medium supplemented with 1 mM IBMX at 37°C. […] The ethanol phase was then dried, and the residue resuspended in 50 mM Tris-HCl pH 7.4, 0.1% BSA. cAMP content was determined by competition of [^3H]cAMP for PKA, as previously described ([Davio et al., 1995]).

MasR [1] = test system: MasR; set-up: method as in Gaidarov et al. (2018); details: 30 min forskolin pre-incubation, 60 min with ligand; ref Gaidarov et al. (2018); cited from earlier work
heart = details: orally active; ref Ferreira et al., 2007; cited from earlier work
Source text: The physiological relevance of the constitutive activity of the MasR remains to be determined. Constitutive activity of GPCRs for various neurotransmitters contributes to basal neuronal activity ([Seifert and Wenzel-Seifert, 2002]). The mRNA encoding the MasR has been detected in various regions of the rat and mouse brain ([Young et al., 1988]; [Bunnemann et al., 1990]; [Martin et al., 1992]; [Metzger et al., 1995]). In addition, it has been reported that MasR-KO mice have alterations of the CNS ([Walther et al., 1998], [2000a],[b]). Thus, the constitutive activity of the MasR could play a reg ...

MasR (A549 cells) = test: Intracellular Ca^2+ (Fura-2AM) in A549 cells transfected with pcDNA 3.1/myc-MasR; assay type: cell-based, human; details: histamine 10^-4 M, same conditions (Figure 3E,F: empty vector or MasR)
Experimental: An empty vector [pcDNA 3.1 (+)] was used both as negative control and to deliver an equal amount of plasmid per transfection in all the experiments.
Changes in intracellular Ca^2+ concentration were measured using fura-2 acetoxymethyl ester (Fura-2AM) fluorescent indicator. […] Fluorescence was measured in a FlexStation 3 microplate reader (Molecular Devices Inc., San Jose, CA, United States). […] After 30 s of initial recording to determine basal levels, 100 nM Ang (1–7) or 100 μM histamine was added in 100 μl final volumes, and the time course of intracellular Ca^2+ mobilization was recorded for 180 s. […] Autofluorescence was quantified by measuring the fluorescence produced by an equivalent suspension of not-loaded cells. Results were expressed as the ratio of fluorescence’s 340/380 over basal. […]

A549 cells = test: Intracellular Ca^2+ (Fura-2AM) in A549 cells with endogenous MasR; assay type: cell-based, human; details: histamine 10^-4 M, 340/380 ratio, 180 s, representative of three independent experiments
Experimental: Changes in intracellular Ca^2+ concentration were measured using fura-2 acetoxymethyl ester (Fura-2AM) fluorescent indicator. A549 cells were seeded in 96 wells dishes for 24 h (90–100% confluence). […] Fluorescence was measured in a FlexStation 3 microplate reader (Molecular Devices Inc., San Jose, CA, United States). […] After 30 s of initial recording to determine basal levels, 100 nM Ang (1–7) or 100 μM histamine was added in 100 μl final volumes, and the time course of intracellular Ca^2+ mobilization was recorded for 180 s. […] Autofluorescence was quantified by measuring the fluorescence produced by an equivalent suspension of not-loaded cells. Results were expressed as the ratio of fluorescence’s 340/380 over basal. Basal levels were determined as the media of the recorded measurements in the first 30 s for each well.

[2] = test system: rat proximal straight tubule; details: against 10^-12 and 10^-8 M Ang-(1–7); ref Garcia and Garvin (1994); cited from earlier work
Source text: (§1) The analysis of the interaction between Ang-(1–7) and the AT1R originated discrepancies. […] In addition, [Teixeira et al. (2017)] by performing competition binding assays using ...

AT1R mRNA = AT1R mRNA by qPCR after siRNA transfection of HEK293T cells; assay type: cell-based, human; details: siRNA 100 nM, 48 h after transfection, β-Actin, three independent experiments
Experimental: HEK293T (human embryonic kidney) and A549 (human lung carcinoma) cells were cultured in Dulbecco’s modified Eagle’s medium (DMEM) supplemented with 10% fetal calf serum and 50 μg/ml gentamicin. Cultures were maintained at 37°C in humidified atmosphere containing 5% CO2. For transient transfections, cells were grown to 80–90% confluency and the cDNA constructs were transfected using the K2 Transfection System (Biontex, Munich, Germany). The transfection protocol was optimized as recommended by the suppliers. Assays were performed 48 h after transfection. […]
Total RNA was isolated from wild type or transfected HEK293T cells using Quick-Zol reagent (Kalium Technologies, Bernal, Argentina) following the manufacturer’s instructions. […] Quantitative real-time PCR (qPCR) was performed in triplicate on the Rotor Gene Q cycler (Qiagen, Hilden, Germany) using the resulting cDNA, the HOT FIREPol EvaGreen qPCR Mix Plus (Solis BioDyne, Tartu, Estonia) for product detection, and the following primers: human MasR (NM_002377.2) forward, 5′-[…] -3′ and reverse 5′-[…]-3′; human AT1R (M93394.1) forward, 5′-[…]-3′ and reverse, 5′-[…]-3′; human AT2R (NM_000686.4) forward, 5′-[…]-3′ and reverse 5′-[…]-3′; and human β-Actin forward, 5′-[…]-3′ and reverse 5′-[…]-3′. […]

AT1R = details: CHO-K1 cells; ref Kostenis et al., 2005; cited from earlier work
Source text: The modulation of the activity of ERK1/2 by Ang-(1–7) has been analyzed previously. […] Participation of the M ...

renal AT1R = details: pM range; reference not clearly printed; cited from earlier work
Source text: as §1

AT1R (Homo sapiens) [3] = molecular target: AT1R (Homo sapiens) (UniProt P30556); test: competition binding; details: cited from earlier work
AT1R (Homo sapiens) [4] = molecular target: AT1R (Homo sapiens) (UniProt P30556); test: competition binding with 3H-Ang II; details: cited from earlier work
Mas receptor = details: ref Tetzner et al., 2016; cited from earlier work
Source text: (§2) The reasons for this discrepancy could rely on the different approaches used to detect the cAMP levels. We desig ...

MrgD receptor = details: ref Tetzner et al., 2016; cited from earlier work
Source text: as §2

MasR [5] = test system: MasR; set-up: method as in 2 sources, one per row (each row's own in cited_ref): ref Bikkavilli et al., 2006; Shemesh et al., 2008; Zhang et al., 2012; Tirupula et al., 2014 ||| ref Dong et al., 2001; details: ref Dong et al., 2001; cited from earlier work

Chain of AT1R (Homo sapiens) (P30556 whole entry): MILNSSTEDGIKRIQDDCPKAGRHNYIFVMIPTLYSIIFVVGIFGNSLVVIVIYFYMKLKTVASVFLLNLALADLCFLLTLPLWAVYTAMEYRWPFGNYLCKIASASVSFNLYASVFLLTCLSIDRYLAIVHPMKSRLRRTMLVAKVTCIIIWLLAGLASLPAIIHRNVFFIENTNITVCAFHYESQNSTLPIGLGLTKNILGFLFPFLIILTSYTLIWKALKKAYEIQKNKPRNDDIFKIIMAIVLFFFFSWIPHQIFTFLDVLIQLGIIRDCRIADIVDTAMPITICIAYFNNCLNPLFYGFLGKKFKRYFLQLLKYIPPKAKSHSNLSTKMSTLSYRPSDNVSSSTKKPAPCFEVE

Question: Which “modulation of cAMP levels, empty vector” value (HEK293T cells) does the source give for `CCNC(=O)NS(=O)(=O)c1sc(CC(C)C)cc1-c1ccc(Cn2c(-c3ccccc3)nc(OC)c2C=O)cc1` [AVE 0991, 5-formyl-4-methoxy-2-phenyl-1-[[4-[2-ethylaminocarbonylsulfonamido-5-isobutil-3-thienyl]phenyl]-methyl]imidazole] here?
Answer: Its value is “did not alter cAMP levels”.

Question: What about the “modulation of cAMP levels” value (human MasR; HEK293T overexpressing MasR, 1 μM forskolin, ligand 5 min) of the same compound?
Answer: Its value is “concentration-dependent decrease in the production of cAMP”.

Question: And the “pEC50, concentration-dependent decrease in the production of cAMP” value (human MasR; HEK293T transfected with pcDNA3.1/c-myc-MasR, 10 min 1 μM forskolin, then 5 min ligand, 37°C, mean ± SEM of three independent experiments)?
Answer: Its value is 7.75 ± 0.40.

Question: And the “forskolin-stimulated cAMP levels in MasR-transfected HEK293 cells” value (MasR [1])?
Answer: The value was “no change in forskolin-stimulated cAMP levels”.

Question: What about the “heart dysfunction, AVE 0991” value (heart) of the same compound?
Answer: Its value is “beneficial effects obtained in heart dysfunction”.

Question: Which results are given for `NCCc1c[nH]cn1` [histamine, histamine dihydrochloride]?
Answer: intracellular Ca^2+ levels, transfected A549 cells, positive control (MasR (A549 cells)): important increase in Ca^2+ levels; intracellular Ca^2+ levels, A549 cells (endogenous MasR), positive control (A549 cells): significant increase in cytosolic Ca^2+ levels

Question: For `CCCCc1nc(Cl)c(CO)n1Cc1ccc(-c2ccccc2-c2nn[nH]n2)cc1` [losartan], which “block of Ang-(1–7) effects on absorption” value [2] is on record?
Answer: Its value is “both effects were blocked by losartan”.

Question: With “AT1R siRNA: human AT1R siRNA (AUACGUGACUGUAGAAUUG) (chemistry not given here)” as the compound, how does the “reduction of AT1R mRNA levels versus scrambled siRNA” value (AT1R mRNA) read?
Answer: Its value is about 50%.

Question: What does the source list for “Ang II: angiotensin II, of the classical RAS axis (DRVYIHPF; Angiotensin-2; UniProt P01019 25-32, looked up)”?
Answer: Ang II-induced IP1 production and Ca^2+ increase on MasR/AT1R coexpression (AT1R): significantly decreased both the Ang II-induced production of IP1 and the increase of intracellular Ca^2+ levels mediated by the AT1R; affinity of renal AT1R on proximal tubules (renal AT1R): very high affinity for Ang II (in the pM range)

Question: Which Ki (AT1R (Homo sapiens) [3]) does the source give for Angiotensin-(1-7) (from UniProt P01019) here?
Answer: The Ki was 360 nM.

Question: And the Ki (AT1R (Homo sapiens) [4])?
Answer: The Ki was 200 nM.

Question: Which “antagonism of Ang-(1–7)-induced cAMP increase, HEK293 overexpressing Mas” value (Mas receptor) does the source give for D-Ala7-Ang-(1–7) here?
Answer: Its value is “blocked”.

Question: What about the “antagonism of Ang-(1–7)-induced cAMP increase, HEK293 overexpressing MrgD” value (MrgD receptor) of the same compound?
Answer: The value was “blocked”.

Question: Which “antagonism of Ang-(1–7)-induced cAMP increase, HEK293 overexpressing Mas” value (Mas receptor) does the source give for D-Pro7-Ang-(1–7) here?
Answer: The value was “blocked”.

Question: And the “antagonism of Ang-(1–7)-induced cAMP increase, HEK293 overexpressing MrgD” value (MrgD receptor)?
Answer: Its value is “blocked”.

Question: With “NPFF: neuropeptide FF (FLFQPQRF; ends and bridges not checked; UniProt O15130 69-76, looked up)” as the compound, how does the “conventional G protein signaling, NPFF” value (MasR [5]) read?
Answer: Its value is “conventional G protein signaling has been reported”.
